Experimental data taken from ChEMBL document CHEMBL1154395, “Modulations of the amide function of the preferential dopamine D3 agonist (R,R)-S32504: improvements of affinity and selectivity for D3 versus D2 receptors” (Bioorg Med Chem Lett, 2009).

Assays:
D(3) dopamine receptor [1] = biological target: T1, D(3) dopamine receptor (Homo sapiens, UniProt P35462); assay: Displacement of [3H]spiperone form human cloned dopamine D3 receptor expressed in CHO cells; type: cell-based
D(2) dopamine receptor = D(2) dopamine receptor (Homo sapiens, UniProt P14416); assay: Displacement of [3H]spiperone form human cloned dopamine D2L receptor expressed in CHO cells; type: cell-based
Homo sapiens = species: Homo sapiens; assay: Selectivity ratio of Ki for human dopamine D2 receptor to Ki for human dopamine D3 receptor
D(3) dopamine receptor [2] = biological target: T1, D(3) dopamine receptor; assay: Activation of human dopamine D3 receptor expressed in CHO cells assessed as [35S]GTPgammaS binding by scintillation proximity assay; type: functional, cell-based

Chain of D(2) dopamine receptor (P14416 whole entry): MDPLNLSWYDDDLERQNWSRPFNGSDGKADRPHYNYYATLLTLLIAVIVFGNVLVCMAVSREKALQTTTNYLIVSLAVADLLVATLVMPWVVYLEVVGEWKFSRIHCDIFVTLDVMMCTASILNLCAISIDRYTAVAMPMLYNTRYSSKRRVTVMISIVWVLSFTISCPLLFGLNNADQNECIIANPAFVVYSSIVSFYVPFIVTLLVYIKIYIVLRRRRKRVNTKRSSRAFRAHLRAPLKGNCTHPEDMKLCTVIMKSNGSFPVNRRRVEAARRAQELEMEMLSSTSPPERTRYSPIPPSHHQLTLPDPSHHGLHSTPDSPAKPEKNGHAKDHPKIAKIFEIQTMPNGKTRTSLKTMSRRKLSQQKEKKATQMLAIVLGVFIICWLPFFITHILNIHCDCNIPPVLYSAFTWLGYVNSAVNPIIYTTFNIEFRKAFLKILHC
T1 sequence (P35462 whole entry): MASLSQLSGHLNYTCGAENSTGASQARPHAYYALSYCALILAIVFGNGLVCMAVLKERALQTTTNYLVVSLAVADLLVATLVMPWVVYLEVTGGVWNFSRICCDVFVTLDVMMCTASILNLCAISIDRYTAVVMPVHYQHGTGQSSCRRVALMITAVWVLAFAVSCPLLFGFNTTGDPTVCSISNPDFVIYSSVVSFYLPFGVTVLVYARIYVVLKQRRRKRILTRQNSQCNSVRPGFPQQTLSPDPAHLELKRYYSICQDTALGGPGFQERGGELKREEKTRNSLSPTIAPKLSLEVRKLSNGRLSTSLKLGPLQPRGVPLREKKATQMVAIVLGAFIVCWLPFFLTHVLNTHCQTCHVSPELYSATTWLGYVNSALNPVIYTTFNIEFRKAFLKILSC

Ki (D(3) dopamine receptor [1])	Ki (D(2) dopamine receptor)	Ratio Ki (Homo sapiens)	EC50 (D(3) dopamine receptor [2])	Compound
> 10 µM	> 1 µM			CCCN1CCO[C@@H]2c3cc(C(=O)OC)ccc3CC[C@H]21
2.45 µM	> 10 µM			CCCN1CCO[C@H]2c3cc(C(N)=O)ccc3CC[C@@H]21
> 10 µM	> 10 µM			CCCN1CCO[C@@H]2c3cc(-c4nnn[nH]4)ccc3CC[C@H]21
> 10 µM	3.39 µM			CCCN1CCO[C@@H]2c3cc(C(=O)NCc4ccc(OC)cc4)ccc3CC[C@H]21
2.75 µM	> 10 µM			CCCN1CCO[C@@H]2c3cc(C(=O)Nc4ccc(OC)cc4)ccc3CC[C@H]21
0.0148 µM	1.2 µM	80	0.00229 µM	CCCN1CCO[C@@H]2c3cc(C(N)=O)ccc3CC[C@H]21
0.0195 µM	0.759 µM	40		CCCN1CCOC2c3cc(C(N)=O)ccc3CCC21 (racemic)
> 10 µM	4.57 µM			CCCCNC(=O)c1ccc2c(c1)[C@H]1OCCN(CCC)[C@@H]1CC2
> 10 µM	1.86 µM			CCCN1CCO[C@@H]2c3cc(C(=O)N(C)C)ccc3CC[C@H]21
2.63 µM				CCCN1CCO[C@@H]2c3cc(C(=O)OCC)ccc3CC[C@H]21
0.0398 µM	0.794 µM	20		CCCN1CCO[C@@H]2c3cc(C#N)ccc3CC[C@H]21
0.0955 µM	3.09 µM	32		CCCN1CCO[C@@H]2c3cc(C(C)=O)ccc3CC[C@H]21
3.31 µM	> 10 µM			CCCN1CCO[C@@H]2c3cc(C(=O)O)ccc3CC[C@H]21
2.19 µM	> 10 µM			CCCN1CCO[C@@H]2c3cc4c(cc3CC[C@H]21)CN(C)C4=O
	0.776 µM			CCCN1CCO[C@@H]2c3cc4c(cc3CC[C@H]21)CCNC4=O
> 10 µM	7.94 µM			CCCN1CCO[C@@H]2c3cc(C(=O)NC)ccc3CC[C@H]21
	2.04 µM			CCCN1CCO[C@@H]2c3cc4c(cc3CC[C@H]21)COC4=O
0.12 µM	1.48 µM	12.5		CCCN1CCO[C@@H]2c3cc4c(cc3CC[C@H]21)CCOC4=O

Compound	Ki (D(3) dopamine receptor [1])	Ki (D(2) dopamine receptor)	Ratio Ki (Homo sapiens)	EC50 (D(3) dopamine receptor [2])
CCCN(CCC)CCc1cccc2c1CC(=O)N2 [ROPINIROLE]		0.692 µM		
CCCN1CCO[C@@H]2c3cc4c(=O)[nH]ccc4cc3CC[C@H]21		1.2 µM		
